Article PMC4676711 (ACS chemical neuroscience, 2015)

Experiment: plasma stability
Type: in vitro ADME
Settings: mouse, plasma (K2 EDTA)

SMILES: CC1CC(OC(=O)C(O)c2ccccc2)CC(C)(C)N1C (stereo not shown) [Eucatropine]
- remaining at 0.5 h, 1 μM: 43.2%
